Measured values reported in ChEMBL document CHEMBL4196067, “Indole in the target-based design of anticancer agents: A versatile scaffold with diverse mechanisms” (Eur J Med Chem, 2018).
In brackets after ≈: the same amount, converted by molar mass.

Key:
P388 = experiment: Antiproliferative activity against mouse P388 cells; type: functional, cell-based
[1] = molecular target: T1, Sigma intracellular receptor 2 (Rattus norvegicus, UniProt Q5U3Y7); experiment: Displacement of [3H]-di-o-tolylguanidine from sigma-2 receptor in rat liver membranes after 180 mins by scintillation counting method; type: cell membranes, Membrane
T1 sequence (Q5U3Y7 whole entry): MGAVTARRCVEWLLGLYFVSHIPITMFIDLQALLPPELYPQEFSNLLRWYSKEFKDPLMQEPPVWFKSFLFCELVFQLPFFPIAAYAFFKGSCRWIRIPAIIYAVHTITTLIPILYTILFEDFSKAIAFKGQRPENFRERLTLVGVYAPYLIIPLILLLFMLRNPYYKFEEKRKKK

[2] = molecular target: Serine/threonine-protein kinase pim-1 (Homo sapiens, UniProt P11309); experiment: Inhibition of PIM1 (unknown origin)
Chain of Serine/threonine-protein kinase pim-1 (P11309 whole entry): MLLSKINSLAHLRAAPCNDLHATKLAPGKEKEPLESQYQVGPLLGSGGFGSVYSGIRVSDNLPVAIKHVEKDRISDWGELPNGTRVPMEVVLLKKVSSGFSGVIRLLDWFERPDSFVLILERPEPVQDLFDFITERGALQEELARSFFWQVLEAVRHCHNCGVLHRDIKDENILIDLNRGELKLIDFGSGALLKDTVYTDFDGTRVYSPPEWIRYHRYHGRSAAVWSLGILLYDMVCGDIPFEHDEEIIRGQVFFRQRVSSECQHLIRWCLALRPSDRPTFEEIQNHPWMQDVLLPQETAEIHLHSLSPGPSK

MCF7 [3] = experiment: Antiproliferative activity against human MCF7 cells after 72 hrs by SRB assay; type: functional, cell-based; settings: MCF7, 72 h
[4] = molecular target: Sigma non-opioid intracellular receptor 1 (Cavia porcellus, UniProt Q60492); experiment: Displacement of [3H]-(+)-pentazocine from sigma-1 receptor in guinea pig brain membranes after 180 mins by scintillation counting method; type: cell membranes, Membrane
Chain of Sigma non-opioid intracellular receptor 1 (Q60492 whole entry): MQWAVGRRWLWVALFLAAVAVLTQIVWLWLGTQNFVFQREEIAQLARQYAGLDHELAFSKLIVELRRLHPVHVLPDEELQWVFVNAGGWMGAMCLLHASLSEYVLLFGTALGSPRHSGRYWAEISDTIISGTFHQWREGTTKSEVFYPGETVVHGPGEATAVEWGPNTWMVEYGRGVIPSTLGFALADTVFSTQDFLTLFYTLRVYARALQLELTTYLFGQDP

HT-1080 = experiment: Antiproliferative activity against human HT1080 cells; type: functional, cell-based
MDA-MB-435 = experiment: Antiproliferative activity against human MDA435 cells; type: functional, cell-based
Histone deacetylase 1 = Histone deacetylase 1 (Homo sapiens, UniProt Q13547); experiment: Inhibition of HDAC1 (unknown origin)
Chain of Histone deacetylase 1 (Q13547 whole entry): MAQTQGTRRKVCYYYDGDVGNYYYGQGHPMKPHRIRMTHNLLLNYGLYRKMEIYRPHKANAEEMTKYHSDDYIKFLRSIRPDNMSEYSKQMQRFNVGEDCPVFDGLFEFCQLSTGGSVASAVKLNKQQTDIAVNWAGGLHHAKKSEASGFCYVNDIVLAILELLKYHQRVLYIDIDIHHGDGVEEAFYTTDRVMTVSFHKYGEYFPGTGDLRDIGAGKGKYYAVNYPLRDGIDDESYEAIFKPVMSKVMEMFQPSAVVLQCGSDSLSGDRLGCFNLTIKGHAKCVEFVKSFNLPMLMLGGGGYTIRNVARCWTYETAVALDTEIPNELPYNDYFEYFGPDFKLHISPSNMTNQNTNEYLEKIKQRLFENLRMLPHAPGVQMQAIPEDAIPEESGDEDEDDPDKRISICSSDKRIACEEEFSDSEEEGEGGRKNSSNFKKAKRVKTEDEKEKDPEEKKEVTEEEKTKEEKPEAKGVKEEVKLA

LoVo = experiment: Antiproliferative activity against human LoVo cells; type: functional, cell-based
HCT-116 = experiment: Antiproliferative activity against human HCT116 cells; type: functional, cell-based
K562 = experiment: Antiproliferative activity against human K562 cells; type: functional, cell-based
HepG2 = experiment: Antiproliferative activity against human HepG2 cells; type: functional, cell-based
MCF7 [5] = experiment: Antiproliferative activity against human MCF7 cells; type: functional, cell-based
HuT78 = experiment: Antiproliferative activity against human HUT78 cells by alamar blue assay; type: functional
CCRF-HSB-2 = experiment: Antiproliferative activity against human HSB2 cells by alamar blue assay; type: functional
MOLT-4 = experiment: Antiproliferative activity against human MOLT4 cells by alamar blue assay; type: functional
Jurkat = experiment: Antiproliferative activity against human Jurkat cells by alamar blue assay; type: functional

`N[C@@H]1CSCON2CCc3c([nH]c4cc(Br)ccc34)[C@H]12` gave an IC50 (P388) of 0.01 µg/mL (≈ 0.0282 µM).
`Cc1cn(CN2CCN(CCc3ccccc3)CC2)c2ccccc12` gave a Ki [1] of 55.8 nM.
For `Fc1ccccc1N1CCN(CCCn2ccc3ccccc32)CC1`, the Ki [1] was 9.9 nM.
In the case of `CCN(CC)CCCOc1cc(-c2ccc3[nH]cc(-c4ccnc(N)n4)c3c2)nc(N)n1`, the IC50 [2] is reported as 67 nM.
In the case of `Clc1ccc(CN2CCN(Cc3c[nH]c4ccccc34)CC2)cc1Cl`, the IC50 (MCF7 [3]) is reported as 2920 nM, the Ki [4] is reported as ≤ 130 nM and the Ki [1] is reported as ≤ 130 nM.
With `O=C(CCCCCCNC(=O)c1cc2ccccc2[nH]1)NO` the IC50 (HT-1080) was 140 nM and the IC50 (MDA-MB-435) was 150 nM.
With `COc1ccc2[nH]cc(Cn3cc(COc4ccc(/C=C/C(=O)NO)cc4OC)nn3)c2c1` the IC50 (Histone deacetylase 1) was 78 nM, the IC50 (LoVo) was 3570 to 6210 nM and the IC50 (HCT-116) was 3570 to 6210 nM. It also gave an IC50 (K562) of 3570 to 6210 nM, an IC50 (HepG2) of 3570 to 6210 nM and an IC50 (MCF7 [5]) of 3570 to 6210 nM.
`CN(C)CCCOc1cc(-c2ccc3[nH]cc(-c4ccnc(N)n4)c3c2)nc(N)n1` showed an IC50 [2] of 58 nM.
With `COc1ccc(Cn2ccc3ccc(C(=O)NO)cc32)cc1` the GI50 (HuT78) was 2400 to 4000 nM, the GI50 (CCRF-HSB-2) was 2400 to 4000 nM and the GI50 (MOLT-4) was 2400 to 4000 nM. For the same molecule, the GI50 (Jurkat) was 2400 to 4000 nM.
